Measured values taken from US20260042762A1 (Kymera Therapeutics, Inc., priority 2018, published 2026).
Where a name gives a salt, the structure may show the parent alone.

Target: T1, MerTK (Homo sapiens, UniProt Q12866)
T1 construct: endogenous in cells; host or cells: Jurkat cells
T1 sequence (Q12866 21-999): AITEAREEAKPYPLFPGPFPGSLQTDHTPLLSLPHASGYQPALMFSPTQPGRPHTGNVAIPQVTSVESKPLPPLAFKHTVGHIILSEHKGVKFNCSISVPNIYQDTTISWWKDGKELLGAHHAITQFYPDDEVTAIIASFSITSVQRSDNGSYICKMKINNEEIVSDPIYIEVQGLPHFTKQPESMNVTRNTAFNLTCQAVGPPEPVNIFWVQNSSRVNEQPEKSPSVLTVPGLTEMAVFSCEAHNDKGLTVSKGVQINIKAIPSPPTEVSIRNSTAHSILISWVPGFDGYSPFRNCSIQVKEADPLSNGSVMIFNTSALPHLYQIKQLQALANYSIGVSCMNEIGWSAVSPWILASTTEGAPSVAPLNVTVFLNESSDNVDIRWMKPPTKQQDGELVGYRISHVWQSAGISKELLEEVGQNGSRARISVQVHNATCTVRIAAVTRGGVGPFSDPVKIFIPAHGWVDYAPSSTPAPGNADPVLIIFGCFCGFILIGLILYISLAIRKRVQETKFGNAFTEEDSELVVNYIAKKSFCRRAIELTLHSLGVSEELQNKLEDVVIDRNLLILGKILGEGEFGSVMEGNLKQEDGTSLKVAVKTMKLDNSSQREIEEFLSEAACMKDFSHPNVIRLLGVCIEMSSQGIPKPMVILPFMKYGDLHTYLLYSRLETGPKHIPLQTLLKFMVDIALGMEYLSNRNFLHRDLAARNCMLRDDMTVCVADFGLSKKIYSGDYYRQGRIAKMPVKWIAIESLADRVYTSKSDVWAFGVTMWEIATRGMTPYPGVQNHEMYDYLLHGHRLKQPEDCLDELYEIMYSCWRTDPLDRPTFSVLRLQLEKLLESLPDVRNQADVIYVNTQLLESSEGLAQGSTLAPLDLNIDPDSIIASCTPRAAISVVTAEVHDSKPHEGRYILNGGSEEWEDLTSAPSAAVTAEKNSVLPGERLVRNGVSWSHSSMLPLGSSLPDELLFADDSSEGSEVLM
Assay: MerTk degradation in Jurkat cells (Western blot)
Assay type: cell-based
Settings: Jurkat, 4 h, 0.001-1 μM, 4 hour-incubation at 37° C., read-out: Jurkat Max % MerTK Degradation
How it was run: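 Jurkat cells treated 4 h at 37 °C with compound at 0.001-1 μM final. RIPA lysates quantified by BCA, then MerTK probed by Western blot against actin loading control with IR-dye secondaries and Odyssey imaging.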

| SMILES | Dmax [%] |
| --- | --- |
| Cn1c(=O)n([C@H]2CCC(=O)NC2=O)c2ccc(CCCOCCOCC3CCN(C[C@H]4CC[C@H](c5cn([C@H]6CC[C@H](O)CC6)c6nc(NCCC(F)(F)F)ncc65)CC4)CC3)cc21 [I-172, 3-[3-methyl-2-oxo-5-(3-[2-[(1-[[trans-4-[7-[trans-4-hydroxycyclohexy1]-2-[(3,3,3-trifluoropropyl)amino]pyrrolo[2,3-d]pyrimidin-5-yl]cyclohexyl]methyl]piperidin-4-yl)methoxy]ethoxy]propy1)-1,3-benzodiazol-1-yl]piperidine-2,6-dione] | > 50 |
| Cc1ncsc1-c1ccc(CNC(=O)[C@@H]2C[C@@H](O)CN2C(=O)[C@@H](NC(=O)C2(F)CC2)C(C)(C)C)c(OCCCCCCCN2CCN(Cc3ccc(-c4cn([C@H]5CC[C@H](O)CC5)c5nc(NCCC(F)(F)F)ncc45)cc3)CC2)c1 [I-213, (2S,4R)-1-[(2S)-2-[(1-fluorocyclopropyl)formamido]-3,3-dimethylbutanoyl]-4-hydroxy-N-[[4-(4-methyl-1,3-thiazol-5-yl)-2-[(7-[4-[(4-[7-[trans-4-hydroxycyclohexyl]-2-[(3,3,3-trifluoropropyl)amino]pyrrolo[2,3-d]pyrimidin-5-yl]phenyl)methyl]piperazin-1-yl]heptyl)oxy]phenyl]methyl]pyrrolidine-2-carboxamide] | > 50 |
| CCCCNc1ncc2c(-c3ccc(CN4CCN(CCOCCCc5ccc6c(c5)n(C)c(=O)n6[C@H]5CCC(=O)NC5=O)CC4)cc3)cn([C@H]3CC[C@H](O)CC3)c2n1 [I-43, 3-[5-(3-[2-[4-([4-[2-(butylamino)-7-[trans-4-hydroxycyclohexy1]-7H-pyrrolo[2,3-d]pyrimidin-5-yl]phenyl]methyl)piperazin-1-y1]ethoxy]propyl)-3-methyl-2-oxo-2,3-dihydro-1H-1,3-benzodiazol-1-yl]piperidine-2,6-dione; formic acid] | > 50 |
| CCCCNc1ncc2c(-c3ccc(CN4CCN(CCOCCOCCOCCOCCCc5ccc6c(c5)n(C)c(=O)n6[C@H]5CCC(=O)NC5=O)CC4)cc3F)cn([C@H]3CC[C@H](O)CC3)c2n1 [I-58, 3-(5-[1-[4-([4-[2-(butylamino)-7-[trans-4-hydroxycyclohexy1]-7H-pyrrolo[2,3-d]pyrimidin-5-y1]-3-fluorophenyl]methyl)piperazin-1-y1]-3,6,9,12-tetraoxapentadecan-15-y1]-3-methyl-2-oxo-2,3-dihydro-1H-1,3-benzodiazol-1-yl)piperidine-2,6-dione] | > 50 |
| Cn1c(=O)n([C@H]2CCC(=O)NC2=O)c2ccc(CCN3CC(OCCN4CCN(Cc5ccc(-c6cn([C@H]7CC[C@H](O)CC7)c7nc(NCCC(F)(F)F)ncc67)cc5)CC4)C3)cc21 [I-128, 3-(3-methyl-2-oxo-5-[2-[3-(2-[4-[(4-[7-[trans-4-hydroxycyclohexyl]-2-[(3,3,3-trifluoropropyl)amino]pyrrolo[2,3-d]pyrimidin-5-yl]phenyl)methyl]piperazin-1-yl]ethoxy)azetidin-1-yl]ethyl]-1,3-benzodiazol-1-y1)piperidine-2,6-dione] | 20 to 50 |
| Cc1ncsc1-c1ccc(CNC(=O)[C@@H]2C[C@@H](O)CN2C(=O)[C@@H](NC(=O)C2(F)CC2)C(C)(C)C)c(OCCCCCCN2CCN(Cc3ccc(-c4cn([C@H]5CC[C@H](O)CC5)c5nc(NCCC(F)(F)F)ncc45)cc3)CC2)c1 [I-212, (2S,4R)-1-[(2S)-2-[(1-fluorocyclopropyl)formamido]-3,3-dimethylbutanoyl]-4-hydroxy-N-[[4-(4-methyl-1,3-thiazol-5-yl)-2-[(6-[4-[(4-[7-[trans-4-hydroxycyclohexyl]-2-[(3,3,3-trifluoropropyl)amino]pyrrolo[2,3-d]pyrimidin-5-yl]phenyl)methyl]piperazin-1-yl]hexyl)oxy]phenyl]methyl]pyrrolidine-2-carboxamide] | > 50 |
| Cn1c(=O)n([C@H]2CCC(=O)NC2=O)c2ccc(CCCOCCCCN3CCN(Cc4ccc(-c5cn([C@H]6CC[C@H](O)CC6)c6nc(NCCC(F)(F)F)ncc56)cc4)CC3)cc21 [I-79, 3-[3-methyl-2-oxo-5-[3-(4-[4-[(4-[7-[trans-4-hydroxycyclohexyl]-2-[(3,3,3-trifluoropropyl)amino]-7H-pyrrolo[2,3-d]pyrimidin-5-yl]phenyl)methyl]piperazin-1-yl]butoxy)propyl]-2,3-dihydro-1H-1,3-benzodiazol-1-yl]piperidine-2,6-dione; formic acid] | > 50 |

More lines, now with the values ahead:

| Dmax [%] | SMILES |
| --- | --- |
| < 20 | CCCCNc1ncc2c(-c3ccc(CN4CCN(CCCc5ccc6c(c5)n(C)c(=O)n6[C@H]5CCC(=O)NC5=O)CC4)cc3)cn([C@H]3CC[C@H](O)CC3)c2n1 [I-44, 3-(5-[3-[4-([4-[2-(Butylamino)-7-[trans-4-hydroxycyclohexyl]-7H-pyrrolo[2,3-d]pyrimidin-5-yl]phenyl]methyl)piperazin-1-yl]propyl]-3-methyl-2-oxo-2,3-dihydro-1H-1,3-benzodiazol-1-y1)piperidine-2,6-dione; formic acid] |
| > 50 | CCCCNc1ncc2c(-c3ccc(CN4CCN(CCOCCOCCOCCCc5ccc6c(c5)n(C)c(=O)n6[C@H]5CCC(=O)NC5=O)CC4)cc3)nn([C@H]3CC[C@H](O)CC3)c2n1 [I-49, 3-(5-[3-[2-(2-[2-[4-([4-[6-(butylamino)-1-[trans-4-hydroxycyclohexy1]-1H-pyrazolo[3,4-d]pyrimidin-3-yl]phenyl]methyl)piperazin-1-yl]ethoxy]ethoxy)ethoxy]propyl]-3-methyl-2-oxo-2,3-dihydro-1H-1,3-benzodiazol-1-y1)piperidine-2,6-dione; formic acid] |
| > 50 | CCCCNc1ncc2c(-c3ccc(CN4CCN(CCCOCCCOCCCc5ccc6c(c5)n(C)c(=O)n6[C@H]5CCC(=O)NC5=O)CC4)cc3)cn([C@H]3CC[C@H](O)CC3)c2n1 [I-62, 3-[5-[3-(3-[3-[4-([4-[2-(butylamino)-7-[trans-4-hydroxycyclohexy1]-7H-pyrrolo[2,3-d]pyrimidin-5-yl]phenyl]methyl)piperazin-1-y1]propoxy]propoxy)propy1]-3-methyl-2-oxo-2,3-dihydro-1H-1,3-benzodiazol-1-y1]piperidine-2,6-dione dihydrochloride] |
| < 20 | Cc1ncsc1-c1ccc(CNC(=O)[C@@H]2C[C@@H](O)CN2C(=O)[C@@H](NCCNCCCCCN2CCN(Cc3ccc(-c4cn([C@H]5CC[C@H](O)CC5)c5nc(NCCC(F)(F)F)ncc45)cc3)CC2)C(C)(C)C)cc1 [I-68, (2S,4R)-1-[(2S)-3,3-dimethyl-2-([2-[(5-[4-[(4-[7-[trans-4-hydroxycyclohexyl]-2-[(3,3,3-trifluoropropyl)amino]-7H-pyrrolo[2,3-d]pyrimidin-5yl]phenyl)methyl]piperazin-1-yl]pentyl)amino]ethyl]amino)butanoyl]-4-hydroxy-N-[[4-(4-methyl-1,3-thiazol-5-yl)phenyl]methyl]pyrrolidine-2-carboxamide dihydrochloride] |
| 20 to 50 | C[C@@H](CC(F)(F)F)Nc1ncc2c(-c3ccc(CN4CCN(CCCO[C@H]5CCN(Cc6ccc7c(c6)n(C)c(=O)n7C6CCC(=O)NC6=O)C5)CC4)cc3)cn([C@H]3CC[C@H](O)CC3)c2n1 (stereo partly drawn) [I-199, 3-(3-methyl-2-oxo-5-[[(3S)-3-(3-[4-[(4-[7-[trans-4-hydroxycyclohexy1]-2-[[(2S)-4,4,4-trifluorobutan-2-yl]amino]pyrrolo[2,3-d]pyrimidin-5-yl]phenyl)methyl]piperazin-1-yl]propoxy)pyrrolidin-1-yl]methyl]-1,3-benzodiazol-1-yl)piperidine-2,6-dione] |
| 20 to 50 | Cn1c(=O)n([C@H]2CCC(=O)NC2=O)c2ccc(CCCOCCCN3CCN(Cc4cn([C@H]5CC[C@H](O)CC5)c5nc(NCCC(F)(F)F)ncc45)CC3)cc21 [I-140, 3-[3-methyl-2-oxo-5-(3-[3-[4-([7-[trans-4-hydroxycyclohexy1]-2-[(3,3,3-trifluoropropyl)amino]pyrrolo[2,3-d]pyrimidin-5-yl]methyl)piperazin-1-yl]propoxy]propyl)-1,3-benzodiazol-1-yl]piperidine-2,6-dione; formic acid] |
